Assay results taken from ChEMBL document CHEMBL5291721, “A preclinical secondary pharmacology resource illuminates target-adverse drug reaction associations of marketed drugs” (Nat Commun, 2023).

What was measured:
[1] = target: T1, Thromboxane A2 receptor (Homo sapiens, UniProt P21731)
T1 sequence (P21731 whole entry): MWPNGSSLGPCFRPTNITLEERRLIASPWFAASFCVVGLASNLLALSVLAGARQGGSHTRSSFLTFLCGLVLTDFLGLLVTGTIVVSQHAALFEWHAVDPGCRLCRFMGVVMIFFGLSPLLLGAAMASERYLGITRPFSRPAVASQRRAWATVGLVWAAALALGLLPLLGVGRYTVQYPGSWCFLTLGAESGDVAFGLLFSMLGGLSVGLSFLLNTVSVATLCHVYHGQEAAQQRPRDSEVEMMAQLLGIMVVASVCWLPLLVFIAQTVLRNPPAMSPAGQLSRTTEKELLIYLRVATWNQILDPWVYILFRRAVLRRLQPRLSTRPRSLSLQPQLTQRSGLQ

[2] = target: Adenosine receptor A2a (Homo sapiens, UniProt P29274)
Sequence of Adenosine receptor A2a (P29274 whole entry): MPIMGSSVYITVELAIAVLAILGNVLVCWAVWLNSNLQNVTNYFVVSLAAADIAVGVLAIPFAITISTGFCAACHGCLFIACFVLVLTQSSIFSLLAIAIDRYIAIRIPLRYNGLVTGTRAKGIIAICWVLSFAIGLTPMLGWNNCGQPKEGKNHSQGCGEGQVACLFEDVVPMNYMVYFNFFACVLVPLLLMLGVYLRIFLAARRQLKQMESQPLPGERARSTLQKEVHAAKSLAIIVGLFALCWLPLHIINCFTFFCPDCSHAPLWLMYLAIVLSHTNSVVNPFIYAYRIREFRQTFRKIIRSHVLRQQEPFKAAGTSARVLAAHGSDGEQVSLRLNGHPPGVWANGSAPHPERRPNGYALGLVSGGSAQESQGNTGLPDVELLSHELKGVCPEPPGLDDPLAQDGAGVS

[3] = target: T2, Muscarinic acetylcholine receptor M2 (Homo sapiens, UniProt P08172); assay type: functional, cell-based
T2 sequence (P08172 whole entry): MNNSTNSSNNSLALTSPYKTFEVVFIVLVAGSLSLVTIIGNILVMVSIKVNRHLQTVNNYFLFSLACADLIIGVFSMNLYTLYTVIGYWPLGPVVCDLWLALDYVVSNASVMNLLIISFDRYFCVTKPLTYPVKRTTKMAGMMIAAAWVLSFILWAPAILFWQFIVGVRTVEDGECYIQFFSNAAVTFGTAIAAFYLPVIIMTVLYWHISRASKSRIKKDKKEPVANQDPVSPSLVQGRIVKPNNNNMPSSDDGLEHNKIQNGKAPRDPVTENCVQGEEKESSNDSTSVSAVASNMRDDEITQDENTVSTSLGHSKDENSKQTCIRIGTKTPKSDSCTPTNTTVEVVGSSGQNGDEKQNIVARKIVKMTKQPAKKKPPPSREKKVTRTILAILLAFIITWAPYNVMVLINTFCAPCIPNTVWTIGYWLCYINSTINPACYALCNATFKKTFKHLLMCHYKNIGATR

[4] = target: D(1A) dopamine receptor (Homo sapiens, UniProt P21728); assay type: functional, cell-based
Sequence of D(1A) dopamine receptor (P21728 whole entry): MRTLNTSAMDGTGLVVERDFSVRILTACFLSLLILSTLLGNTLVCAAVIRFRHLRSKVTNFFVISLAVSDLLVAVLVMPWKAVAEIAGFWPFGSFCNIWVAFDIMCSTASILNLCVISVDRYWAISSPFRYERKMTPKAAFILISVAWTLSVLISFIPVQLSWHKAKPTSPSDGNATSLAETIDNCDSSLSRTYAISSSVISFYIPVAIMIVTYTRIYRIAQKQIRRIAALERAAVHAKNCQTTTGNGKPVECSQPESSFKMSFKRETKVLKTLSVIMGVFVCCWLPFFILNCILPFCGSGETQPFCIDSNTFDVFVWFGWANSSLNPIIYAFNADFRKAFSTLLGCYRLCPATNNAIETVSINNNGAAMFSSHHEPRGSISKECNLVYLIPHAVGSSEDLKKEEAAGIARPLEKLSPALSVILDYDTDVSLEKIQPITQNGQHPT

[5] = target: T3, Alpha-2A adrenergic receptor (Homo sapiens, UniProt P08913); assay type: functional, cell-based
T3 sequence (P08913 whole entry): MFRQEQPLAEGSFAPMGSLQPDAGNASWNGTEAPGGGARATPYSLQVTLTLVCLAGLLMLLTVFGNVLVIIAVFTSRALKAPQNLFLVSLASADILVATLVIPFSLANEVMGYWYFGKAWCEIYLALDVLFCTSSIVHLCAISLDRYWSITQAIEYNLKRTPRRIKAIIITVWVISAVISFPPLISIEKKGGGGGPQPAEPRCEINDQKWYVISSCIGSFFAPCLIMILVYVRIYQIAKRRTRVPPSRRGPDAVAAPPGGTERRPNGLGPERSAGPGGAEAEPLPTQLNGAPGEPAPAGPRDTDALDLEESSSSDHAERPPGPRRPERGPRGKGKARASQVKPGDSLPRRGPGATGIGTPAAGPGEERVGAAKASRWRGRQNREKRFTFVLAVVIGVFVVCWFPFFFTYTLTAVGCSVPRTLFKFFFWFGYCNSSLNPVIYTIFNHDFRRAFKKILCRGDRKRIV

[6] = target: T4, Cholecystokinin receptor type A (Homo sapiens, UniProt P32238)
T4 sequence (P32238 whole entry): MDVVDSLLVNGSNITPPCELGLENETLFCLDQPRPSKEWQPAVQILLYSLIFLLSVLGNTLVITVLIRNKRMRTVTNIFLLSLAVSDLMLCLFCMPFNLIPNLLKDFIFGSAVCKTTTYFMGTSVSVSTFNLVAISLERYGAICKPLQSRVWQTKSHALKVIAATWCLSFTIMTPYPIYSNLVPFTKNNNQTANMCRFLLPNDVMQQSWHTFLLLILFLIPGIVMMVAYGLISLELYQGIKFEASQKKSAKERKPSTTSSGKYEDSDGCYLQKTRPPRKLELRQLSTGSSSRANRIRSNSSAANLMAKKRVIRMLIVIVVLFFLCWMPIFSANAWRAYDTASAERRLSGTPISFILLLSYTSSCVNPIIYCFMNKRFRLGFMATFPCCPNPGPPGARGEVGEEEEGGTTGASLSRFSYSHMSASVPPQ

[7] = target: Growth hormone secretagogue receptor type 1 (Homo sapiens, UniProt Q92847)
Sequence of Growth hormone secretagogue receptor type 1 (Q92847 whole entry): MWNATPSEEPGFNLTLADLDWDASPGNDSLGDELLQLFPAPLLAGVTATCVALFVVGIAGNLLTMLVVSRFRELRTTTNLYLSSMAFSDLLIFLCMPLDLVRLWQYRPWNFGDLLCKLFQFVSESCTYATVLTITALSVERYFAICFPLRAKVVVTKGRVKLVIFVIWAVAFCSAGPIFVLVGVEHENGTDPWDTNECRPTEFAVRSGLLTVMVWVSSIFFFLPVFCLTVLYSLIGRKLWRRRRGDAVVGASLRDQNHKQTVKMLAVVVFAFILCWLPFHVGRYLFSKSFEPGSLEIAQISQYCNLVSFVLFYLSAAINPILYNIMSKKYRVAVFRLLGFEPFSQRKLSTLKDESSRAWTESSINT

[8] = target: Muscarinic acetylcholine receptor M3 (Homo sapiens, UniProt P20309)
Sequence of Muscarinic acetylcholine receptor M3 (P20309 whole entry): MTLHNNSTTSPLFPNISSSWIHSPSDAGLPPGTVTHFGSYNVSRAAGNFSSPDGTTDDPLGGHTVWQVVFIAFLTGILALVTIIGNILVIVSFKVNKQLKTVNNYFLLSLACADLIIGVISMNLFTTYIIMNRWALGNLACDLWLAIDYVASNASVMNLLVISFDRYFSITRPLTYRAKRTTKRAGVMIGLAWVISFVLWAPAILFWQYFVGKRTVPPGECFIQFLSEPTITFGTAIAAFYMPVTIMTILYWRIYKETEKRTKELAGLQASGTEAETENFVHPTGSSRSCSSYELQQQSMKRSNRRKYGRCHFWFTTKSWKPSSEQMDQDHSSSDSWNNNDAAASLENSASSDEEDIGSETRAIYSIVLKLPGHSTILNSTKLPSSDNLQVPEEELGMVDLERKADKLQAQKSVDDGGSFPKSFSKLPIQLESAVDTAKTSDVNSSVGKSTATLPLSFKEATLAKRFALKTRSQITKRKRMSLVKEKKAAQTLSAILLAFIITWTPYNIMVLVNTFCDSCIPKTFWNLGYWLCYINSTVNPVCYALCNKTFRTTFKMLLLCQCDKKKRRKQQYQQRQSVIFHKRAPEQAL

[9] = target: 5-hydroxytryptamine receptor 2A (Homo sapiens, UniProt P28223); assay type: functional, cell-based
Sequence of 5-hydroxytryptamine receptor 2A (P28223 whole entry): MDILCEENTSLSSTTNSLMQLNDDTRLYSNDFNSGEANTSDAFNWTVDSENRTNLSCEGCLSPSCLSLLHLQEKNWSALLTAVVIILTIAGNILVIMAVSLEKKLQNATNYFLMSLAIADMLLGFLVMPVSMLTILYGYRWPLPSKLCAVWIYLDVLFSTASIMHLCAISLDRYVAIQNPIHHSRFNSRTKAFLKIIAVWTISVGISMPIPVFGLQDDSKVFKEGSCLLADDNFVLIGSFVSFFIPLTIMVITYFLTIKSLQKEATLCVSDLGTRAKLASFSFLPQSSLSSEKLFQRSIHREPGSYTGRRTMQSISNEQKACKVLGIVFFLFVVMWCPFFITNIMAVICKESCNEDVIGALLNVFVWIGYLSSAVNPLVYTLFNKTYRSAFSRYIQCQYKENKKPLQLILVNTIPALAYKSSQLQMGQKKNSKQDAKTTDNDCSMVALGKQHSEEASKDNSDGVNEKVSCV

[10] = target: T2, Muscarinic acetylcholine receptor M2; assay type: functional, cell-based; remark: listed apart in the source
[11] = target: T5, Alpha-2B adrenergic receptor (Homo sapiens, UniProt P18089)
T5 sequence (P18089 whole entry): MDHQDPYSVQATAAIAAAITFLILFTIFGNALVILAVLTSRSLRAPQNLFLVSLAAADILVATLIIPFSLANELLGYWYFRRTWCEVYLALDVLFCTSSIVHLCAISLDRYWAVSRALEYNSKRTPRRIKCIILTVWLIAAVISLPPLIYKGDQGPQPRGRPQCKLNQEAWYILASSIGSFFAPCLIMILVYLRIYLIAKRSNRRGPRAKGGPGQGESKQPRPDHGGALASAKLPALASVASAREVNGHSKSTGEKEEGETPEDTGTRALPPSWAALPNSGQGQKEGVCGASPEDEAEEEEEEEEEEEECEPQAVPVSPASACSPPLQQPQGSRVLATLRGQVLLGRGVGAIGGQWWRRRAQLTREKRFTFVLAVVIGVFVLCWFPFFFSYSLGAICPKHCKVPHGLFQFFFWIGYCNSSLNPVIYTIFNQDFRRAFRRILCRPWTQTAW

[12] = target: T6, Neuropeptide Y receptor type 1 (Homo sapiens, UniProt P25929)
T6 sequence (P25929 whole entry): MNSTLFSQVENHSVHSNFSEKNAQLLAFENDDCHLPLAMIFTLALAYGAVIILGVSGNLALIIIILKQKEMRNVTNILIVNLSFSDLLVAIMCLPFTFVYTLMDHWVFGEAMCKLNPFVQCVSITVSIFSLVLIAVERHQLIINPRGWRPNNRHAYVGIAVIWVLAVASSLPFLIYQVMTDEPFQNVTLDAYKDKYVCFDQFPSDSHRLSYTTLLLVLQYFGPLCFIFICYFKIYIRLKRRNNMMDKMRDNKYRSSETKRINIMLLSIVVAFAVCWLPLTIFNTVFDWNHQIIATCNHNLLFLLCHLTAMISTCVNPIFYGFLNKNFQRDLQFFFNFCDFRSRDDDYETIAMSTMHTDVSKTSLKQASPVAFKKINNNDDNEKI
Note: assay procedure not described here.

With `NC(CO)C(=O)NNCc1ccc(O)c(O)c1O` (configuration not stated) [BENSERAZIDE] the AC50 [1] was > 30 µM, the AC50 [2] was > 30 µM and the AC50 [3] was > 10 µM. For the same molecule, the AC50 [4] was > 10 µM, the AC50 [5] was > 10 µM and the AC50 [6] was > 30 µM. The AC50 [7] was > 30 µM, the AC50 [8] was > 30 µM and the AC50 [9] was > 30 µM. For the same molecule, the AC50 [10] was > 10 µM, the AC50 [11] was > 10 µM and the AC50 [12] was 5.67 µM.
